Assay results taken from ChEMBL document CHEMBL1142246, “Azetidine-2,4-diones (4-oxo-beta-lactams) as scaffolds for designing elastase inhibitors” (J Med Chem, 2008).
Activity calls are given as the source filed them. The calls are words filed in the database; no cut-off is given here.

How the values were obtained:
[1] = (§1) Inhibition of pig pancreatic elastase; set-up: species or system Sus scrofa
Sus scrofa = species: Sus scrofa; assay: as §1

Ki [1] [µM] | Activity (Sus scrofa) | Structure (SMILES)
7.46 |  | CCC1(CC)C(=O)N(c2ccc(C)cc2)C1=O
10.2 |  | CCC1(CC)C(=O)N(c2ccccc2)C1=O
9.81 |  | CCC1(CC)C(=O)N(c2ccc(OC)cc2)C1=O
10 |  | CC1(C)C(=O)N(c2ccc(Cl)cc2)C1=O
8.47 |  | CCC1(CC)C(=O)N(c2ccc(Cl)cc2)C1=O
 | inactive | CCC1(CC)C(=O)N(Cc2ccccc2)C1=O
 | inactive | CCOC(=O)CN1C(=O)C(CC)(CC)C1=O
6.02 |  | CCC1(CC)C(=O)N(c2ccc(C#N)cc2)C1=O
184 |  | CC1(C)C(=O)N(Cc2ccccc2)C1=O
